The values that follow come from ChEMBL document CHEMBL5247651, “Oxadiazolopyridine Derivatives as Efficacious Mitochondrial Uncouplers in the Prevention of Diet-Induced Obesity” (J Med Chem, 2023).

The source made the active and inactive calls. No cut-off for these calls is given here. Where only a bound is given, the exact number is not on record here.

The nature of data set [1]: Induction of mitochondrial uncoupling activity in rat L6 cells assessed as increase in oxygen consumption rate measured after 90 mins by agilent Seahorse XF analyzer. Format: functional, cell-based.
A short description of data set [2]: (§1) Induction of mitochondrial uncoupling activity in rat L6 cells assessed as increase in oxygen consumption rate at 0.37 to 200 uM measured after 90 mins by agilent Seahorse XF analyzer relative to BAM15. Type of data set: functional. Particulars: dose 0.37-200 µM, 1.5 h.
Data set [3] has as its system L6. The following applies: Rattus norvegicus, time 90.0 min.
Data set [4] concerns L6. Described as §1. Type of data set: functional. The following applies: dose 0.37-200 µM.
Data set [5] can be described thus: Cmax in C57BL/6 mouse at 10 mg/kg, po administered via gavage measured upto 24 hrs by LC/MS-MS analysis. Format: ADME, organism-based. Details: dose 10 mg/kg, time < 24 hrs, route po. The following applies: in vivo.
Data set [6] can be described thus: Half life in C57BL/6 mouse at 10 mg/kg, po administered via gavage measured upto 24 hrs by LC/MS-MS analysis. Type of data set: ADME, organism-based. Particulars: in vivo.
The test system of data set [7] is Mus musculus. Nature of the data set: Anti-obesity activity against HFD-induced C57BL/6J mouse model assessed as reduction in diet-induced weight gain at 125 mg/kg/day measured after 8 weeks. Format: functional. Details: scale not given: the % may be the effect or the level left.
Data set [8] has as its system Mus musculus. Nature of the data set: Anti-obesity activity against HFD-induced C57BL/6 mouse model assessed as reduction in body fat mass at 5 mg/kg, po via gavage administered 3 times a week measured after 6 weeks. Type of data set: functional. Details: scale not given: the % may be the effect or the level left.

The pEC50 is the EC50 on a negative log10 scale, so that one unit is a factor of ten. On to `Oc1nc2nonc2cc1Nc1c(F)cccc1C(F)(F)F`, for which, in data set [1], the pEC50 came out at 4.3. The Activity in data set [2] was found to be 10%.
For `Oc1nc2nonc2cc1Nc1cccc(C(F)(F)F)c1`, the pEC50 in data set [1] came to 5.8. Further, the Activity in data set [2] was 14%.
In the case of `Oc1nc2nonc2cc1Nc1ccc(S(F)(F)(F)(F)F)cc1`, the pEC50 in data set [1] is 6.2. The Activity in data set [2] is 4%.
`Oc1nc2nonc2cc1Nc1c(F)cccc1F`: the pEC50 entry in the data set on L6 [3] is “inactive”. Also, in data set [2], the Activity stood at 6%.
With `Oc1nc2nonc2cc1Nc1ccc(F)c(F)c1F`, the pEC50 entry in the data set on L6 [3] was “inactive”. The Activity in data set [2] is 2%.
In the case of `Oc1nc2nonc2cc1Nc1cc(F)ccc1F`, in data set [1], the pEC50 is 4.7. Besides, the Activity in data set [2] stood at 27%.
Consider `Oc1nc2nonc2cc1Nc1cc(OC(F)(F)F)c(F)cc1F`, for which the pEC50 in data set [1] is given as 5.7. In addition, the Activity in data set [2] is listed as 58%.
With `Oc1nc2nonc2cc1Nc1ccccc1C(F)(F)F`, the pEC50 in data set [1] is given as 4.8. For the same molecule, in data set [2], the Activity stood at 20%.
As to `Oc1nc2nonc2cc1Nc1cccc(S(F)(F)(F)(F)F)c1`, the pEC50 in data set [1] worked out at 5.9. Also, the Activity in data set [2] came out at 20%.
For `Oc1nc2nonc2cc1Nc1cc(F)c(C(F)(F)F)c(F)c1`, in data set [1], the pEC50 stood at 5.9. Also, the Activity in data set [2] was found to be 33%.
As a reminder, the EC50 is the concentration needed to bring the measured effect to its halfway point. In the case of `Oc1nc2nonc2cc1Nc1ccc(C(F)(F)F)nc1`, in data set [1], the EC50 is 20 µM and the pEC50 was 4.7. For the same molecule, the Activity in data set [2] is reported as 26%.
For `Oc1nc2nonc2cc1Nc1c(F)cc(F)cc1F`, the pEC50 in data set [1] was found to be 4.4. Besides, the Activity in data set [2] was 14%.
For the molecule `Oc1nc2nonc2cc1Nc1ccc(OC(F)(F)F)cc1`, in data set [1], the pEC50 was determined as 5.8. For the same molecule, the Activity in data set [2] was 14%.
For `COc1ccc(Nc2cc3nonc3nc2O)cc1`, the pEC50 entry with L6 [3] was “inactive”. In addition, the result in the data set with L6 [4] was inactive.
Consider `Oc1nc2nonc2cc1Nc1cccc(C(F)(F)F)c1F`, for which, in the data set with L6 [3], the pEC50 result is “inactive”. In data set [2], the Activity stood at 3%.
For the molecule `Oc1nc2nonc2cc1Nc1ccc(F)cc1C(F)(F)F`, the pEC50 in data set [1] turned out to be 5.3. In addition, in data set [2], the Activity came to 29%.
For the molecule `Oc1nc2nonc2cc1Nc1ccc(C(F)(F)F)c(C(F)(F)F)c1`, in data set [1], the pEC50 came out at 6. Further, the Activity in data set [2] stood at 10%.
As for `Oc1nc2nonc2cc1Nc1ccc(F)cc1`, the pEC50 result with L6 [3] was “inactive”. Further, the Activity in data set [2] worked out at 6%.
What is called Cmax is the peak of the concentration-time curve. On to `Oc1nc2nonc2cc1Nc1cc(C(F)(F)F)c(F)cc1F`, for which the Cmax in data set [5] was found to be 25 µM. In addition, in data set [1], the EC50 was determined as 1.4 µM and the negative logarithm of the EC50 (pEC50) came out at 5.5. For the same molecule, in data set [2], the Activity was 51%. In addition, in data set [6], the t1/2 worked out at 1.3 h.
For `Oc1nc2nonc2cc1Nc1cc(OC(F)(F)F)ccc1F`, in data set [1], the EC50 came out at 3.4 µM and the pEC50 was found to be 5.5. In data set [2], the Activity was 59%.
As for `Oc1nc2nonc2cc1Nc1ccc(C(F)(F)F)cc1`, the EC50 in data set [1] is 6.9 µM. Also, in data set [2], the Activity was determined as 28%.
With `O=S(=O)(c1ccc(Nc2cc3nonc3nc2O)cc1)C(F)(F)F`, in data set [1], the pEC50 stood at 6. Also, the Activity in data set [2] amounted to 25%.
`Oc1nc2nonc2cc1Nc1cc(F)ccc1C(F)(F)F`: in data set [1], the EC50 is 7.8 µM and the pEC50 is listed as 5.1. The Activity in data set [2] came out at 53%.
`Oc1nc2nonc2cc1Nc1cc(F)ccc1OC(F)(F)F`: the pEC50 in data set [1] turned out to be 5.9. The Activity in data set [2] was found to be 13%.
As to `Oc1nc2nonc2cc1Nc1ccc(F)cc1F`, the pEC50 result in the data set on L6 [3] is “inactive”. Moreover, the outcome in the data set on L6 [4] was inactive.
Take `Oc1nc2nonc2cc1Nc1cccc(F)c1F`: the pEC50 result with L6 [3] was “inactive”. For the same molecule, in data set [2], the Activity was determined as 3%.
Take `Oc1nc2nonc2cc1Nc1cccc(OC(F)(F)F)c1`: the pEC50 in data set [1] was 5.3. In data set [2], the Activity was 17%.
For `Oc1nc2nonc2cc1Nc1cc(F)c(F)c(F)c1` the same measures were 5.6 and 21%.
`O=S(=O)(c1cccc(Nc2cc3nonc3nc2O)c1)C(F)(F)F`: the pEC50 in data set [1] is reported as over 4. In data set [2], the Activity is on record as 13%.
As for `Oc1nc2nonc2cc1Nc1cc(F)c(C(F)(F)F)cc1F`, the pEC50 in data set [1] is 6.1. The Activity in data set [2] was 26%.
`Oc1nc2nonc2cc1Nc1ccc(OC(F)(F)C(F)F)cc1`: the pEC50 result in the data set with L6 [3] is “inactive”. Moreover, in the data set with L6 [4], the result was inactive.
Regarding `Oc1nc2nonc2cc1Nc1c(F)c(F)c(C(F)(F)F)c(F)c1F`, in data set [5], the Cmax stood at 21 µM. Moreover, in data set [1], the concentration for a half-maximal effect (EC50) came to 2 µM and the pEC50 stood at 5.9. The Activity in data set [2] was 69%. Besides, in data set [6], the t1/2 was 15.6 h.
In the case of `Oc1nc2nonc2cc1Nc1ccc(C(F)(F)F)cc1C(F)(F)F`, the pEC50 in data set [1] stood at 6. For the same molecule, in data set [2], the Activity was 34%.
In turn, `Oc1nc2nonc2cc1Nc1cc(C(F)(F)F)ccc1F` returned a Cmax in data set [5] of 46 µM. In addition, in data set [1], the EC50 came out at 1.5 µM and the pEC50 amounted to 5.4. Besides, the Activity in data set [2] was 54%. This molecule came in with a t1/2 in data set [6] of 1 h.
Turning to `Oc1nc2nonc2cc1Nc1ccc(F)cc1OC(F)(F)F`, the pEC50 in data set [1] is on record as 5.7. In data set [2], the Activity is 14%.
`Oc1nc2nonc2cc1Nc1ccc(OC(F)(F)F)cc1C(F)(F)F` displayed a Cmax in data set [5] of 10 µM. Moreover, in data set [1], the EC50 was determined as 3.1 µM and the pEC50 is 5.5. Moreover, the Activity in data set [2] amounted to 57%. In data set [6], this molecule returned a t1/2 of over 24 h.
In the case of `Oc1nc2nonc2cc1Nc1cc(F)cc(F)c1`, in data set [1], the pEC50 came out at 4.3. Moreover, the Activity in data set [2] was 24%.
On to `Oc1nc2nonc2cc1Nc1ccc(OC(F)(F)F)cc1F`, for which the pEC50 in data set [1] is reported as 5.8. In addition, the Activity in data set [2] is 11%.
For `O=C(Nc1ccc([N+](=O)[O-])cc1Cl)c1cc(Cl)ccc1O` [NICLOSAMIDE], the Activity with Mus musculus [7] amounted to 25%.
Take `Oc1nc2nonc2cc1Nc1ccccc1F`: the pEC50 result in the data set on L6 [3] was “inactive”.
Turning to `Oc1nc2nonc2cc1Nc1cc(C(F)(F)F)ccc1C(F)(F)F`, the highest level in data set [5] (Cmax) was 29 µM. In data set [1], the EC50 worked out at 1.5 µM and the negative logarithm of the EC50 (pEC50) is on record as 5.7. Besides, the Activity in data set [2] stood at 72%. Further, the t1/2 in data set [6] came out at 2.2 h.
In the case of `Cc1ccc(Nc2cc3nonc3nc2O)cc1`, the pEC50 result with L6 [3] is “inactive”. For the same molecule, the result in the data set on L6 [4] was inactive.
Consider `Oc1nc2nonc2cc1Nc1cccc(OC(F)(F)F)c1F`, for which the pEC50 in data set [1] came out at 5.9. The Activity in data set [2] came out at 30%.
Consider `Oc1nc2nonc2cc1Nc1cc(F)cc(OC(F)(F)F)c1`, for which the pEC50 result in the data set on L6 [3] is “inactive”. In addition, in data set [2], the Activity was found to be 6%.
Turning to `Oc1nc2nonc2cc1Nc1ccc(C(F)(F)F)c(F)c1`, the pEC50 in data set [1] is reported as 6.1. In data set [2], the Activity amounted to 10%.
As to `Oc1nc2nonc2cc1Nc1ccccc1OC(F)(F)F`, the pEC50 entry with L6 [3] is “inactive”. Also, the outcome in the data set on L6 [4] was inactive.
In the case of `CS(=O)(=O)c1ccc(Nc2cc3nonc3nc2O)cc1`, the pEC50 result with L6 [3] is “inactive”. In addition, the outcome with L6 [4] was inactive.
Regarding `Oc1nc2nonc2cc1Nc1cc(F)cc(C(F)(F)F)c1`, in data set [1], the pEC50 is 6.1. The Activity in data set [2] was found to be 11%.
In the case of `Oc1nc2nonc2cc1Nc1cccc(F)c1`, in the data set on L6 [3], the pEC50 entry is “inactive”. In data set [2], the Activity came out at 3%.
Consider `Oc1nc2nonc2cc1Nc1cc(C(F)(F)F)cc(C(F)(F)F)c1`, for which the pEC50 in data set [1] is recorded as 5.8. The Activity in data set [2] stood at 35%.
For `Oc1nc2nonc2cc1Nc1ccc(OC(F)(F)F)c(F)c1` the same measures were 5.6 and 25%.
For `CC(C)(C)c1ccccc1Nc1cc2nonc2nc1O`, the pEC50 result with L6 [3] was “inactive”. For the same molecule, in the data set with L6 [4], the outcome was inactive.
Turning to `Oc1nc2nonc2cc1Nc1cccc(C(F)(F)F)c1C(F)(F)F`, the pEC50 in data set [1] stood at 5.7. Also, the Activity in data set [2] was found to be 11%.
Consider `Oc1nc2nonc2cc1Nc1cccc(F)c1C(F)(F)F`, for which the pEC50 in data set [1] came to 5.3. Also, the Activity in data set [2] turned out to be 26%.
`O=C(Nc1cc(Cl)cc(Cl)c1)Nc1cc(Cl)cc(Cl)c1`: the Activity with Mus musculus [8] was found to be 35%.
With `Oc1nc2nonc2cc1Nc1ccc(C(F)(F)F)cc1F`, the pEC50 result in the data set on L6 [3] was “inactive”. In data set [2], the Activity came to 9%.
For the molecule `Oc1nc2nonc2cc1Nc1ccc(F)c(F)c1`, in data set [1], the pEC50 was determined as 4.2. Besides, in data set [2], the Activity is recorded as 17%.
